Measured values as given in PubChem BioAssay AID330 (DTP/NCI, 2004).
Values joined by “and” are separate entries in the source; they are usually repeats but may differ in a detail not shown here. Identical values can stand only once. Inconclusive results and toxic doses are left out. Square brackets hold non-standard residues; d marks the D form. Peptide text beside a SMILES is read from it. * marks the point of attachment. ξ: configuration not given here. ξQ = NC(=O)CCC(N)C(=O)O; Cbz = O=C(OCc1ccccc1)*

Test system: P388 leukemia ip, CD2F1 mice, survival T/C
Assay: NCI In Vivo Anticancer Drug Screen. Data for tumor model P388 Leukemia (intraperitoneal) in CD2F1 (CDF1) mice
Conditions: endpoint: median survival time, higher = longer survival
Method in brief: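 Mice carrying the transplanted tumor received test compound or vehicle. Survival was recorded in each group, and the value is the treated-group measurement divided by that of the vehicle-treated control group.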

[1] = dose: 50.0 mg/kg/injection, schedule: Q01DX005 (ip), vehicle: saline with Tween-80
[2] = dose: 100.0 mg/kg/injection, schedule: Q01DX005 (ip), vehicle: saline with Tween-80
[3] = dose: 100.0 mg/kg/injection, schedule: Q04DX002 (ip), vehicle: saline with Tween-80
[4] = dose: 200.0 mg/kg/injection, schedule: Q01DX005 (ip), vehicle: saline with Tween-80
[5] = dose: 60.0 mg/kg/injection, schedule: Q01DX005 (ip), vehicle: saline with Tween-80
[6] = dose: 120.0 mg/kg/injection, schedule: Q01DX005 (ip), vehicle: saline with Tween-80
[7] = dose: 240.0 mg/kg/injection, schedule: Q01DX005 (ip), vehicle: saline with Tween-80
[8] = dose: 60.0 mg/kg/injection, schedule: Q01DX005 (ip), vehicle: saline
[9] = dose: 120.0 mg/kg/injection, schedule: Q01DX005 (ip), vehicle: saline
[10] = dose: 240.0 mg/kg/injection, schedule: Q01DX005 (ip), vehicle: saline
[11] = dose: 12.5 mg/kg/injection, schedule: Q01DX009 (ip), vehicle: saline with Tween-80
[12] = dose: 12.5 mg/kg/injection, schedule: Q04DX003 (ip), vehicle: saline with Tween-80
[13] = dose: 25.0 mg/kg/injection, schedule: Q04DX003 (ip), vehicle: saline with Tween-80

CC1=CC(O)C(O)C2(C)C1CC(=O)C13COC4OC(CC1C4=O)C(O)C32 (stereo not drawn)
T/C (dose: 0.5 mg/kg/injection, schedule: Q01DX009 (ip), vehicle: saline): 102 % of control
T/C (dose: 1.0 mg/kg/injection, schedule: Q01DX009 (ip), vehicle: saline): 103 % of control
T/C (dose: 2.0 mg/kg/injection, schedule: Q01DX009 (ip), vehicle: Klucel (hydroxypropylcellulose) (HPC)): 96 % of control and 97 % of control
T/C (dose: 2.0 mg/kg/injection, schedule: Q01DX009 (ip), vehicle: saline): 107 % of control
T/C (dose: 4.0 mg/kg/injection, schedule: Q01DX009 (ip), vehicle: Klucel (hydroxypropylcellulose) (HPC)): 100 % of control and 111 % of control and 92 % of control
T/C (dose: 4.0 mg/kg/injection, schedule: Q01DX009 (ip), vehicle: saline): 102 % of control
T/C (dose: 8.0 mg/kg/injection, schedule: Q01DX009 (ip), vehicle: Klucel (hydroxypropylcellulose) (HPC)): 98 % of control and 94 % of control
T/C (dose: 16.0 mg/kg/injection, schedule: Q01DX009 (ip), vehicle: Klucel (hydroxypropylcellulose) (HPC)): 92 % of control
T/C (dose: 32.0 mg/kg/injection, schedule: Q01DX009 (ip), vehicle: Klucel (hydroxypropylcellulose) (HPC)): 86 % of control

Nc1ccc2ccccc2c1-c1cccc2ccccc12
T/C [1]: 96 % of control
T/C [2]: 96 % of control
T/C [3]: 102 % of control
T/C [4]: 102 % of control
T/C (dose: 200.0 mg/kg/injection, schedule: Q04DX002 (ip), vehicle: saline with Tween-80): 102 % of control
T/C (dose: 400.0 mg/kg/injection, schedule: Q04DX002 (ip), vehicle: saline with Tween-80): 92 % of control

CCCCONc1ccnc(=O)[nH]1
T/C (dose: 37.5 mg/kg/injection, schedule: Q01DX001 (ip), vehicle: saline): 100 % of control
T/C (dose: 75.0 mg/kg/injection, schedule: Q01DX001 (ip), vehicle: saline): 100 % of control
T/C (dose: 150.0 mg/kg/injection, schedule: Q01DX001 (ip), vehicle: saline): 107 % of control

C=C1CC2(CCCC3(C)CCC(C(C)C)CC32C)OC1=O (stereo not drawn)
T/C (dose: 100.0 mg/kg/injection, schedule: Q01DX001 (ip), vehicle: saline): 101 % of control
T/C (dose: 200.0 mg/kg/injection, schedule: Q01DX001 (ip), vehicle: saline): 106 % of control
T/C (dose: 400.0 mg/kg/injection, schedule: Q01DX001 (ip), vehicle: saline): 110 % of control

COC1=Cc2nc3ccccc3nc2OC1(C)C
T/C [5]: 110 % of control
T/C [6]: 100 % of control
T/C [7]: 92 % of control

NC(=O)CCC(N)C(=O)NCC(=O)O (stereo not drawn) (H-[ξQ]-Gly-OH)
T/C (dose: 12.5 mg/kg/injection, schedule: Q01DX005 (ip), vehicle: distilled water + Tween-80): 106 % of control
T/C (dose: 25.0 mg/kg/injection, schedule: Q01DX005 (ip), vehicle: distilled water + Tween-80): 109 % of control
T/C (dose: 50.0 mg/kg/injection, schedule: Q01DX005 (ip), vehicle: distilled water + Tween-80): 104 % of control
T/C (dose: 100.0 mg/kg/injection, schedule: Q01DX005 (ip), vehicle: distilled water + Tween-80): 109 % of control
T/C (dose: 200.0 mg/kg/injection, schedule: Q01DX005 (ip), vehicle: distilled water + Tween-80): 113 % of control

COc1cccc(C(c2cc3c(cc2O)OCO3)N2CCN(C(c3cc4c(cc3O)OCO4)c3cccc(OC)c3O)CC2)c1O (stereo not drawn)
T/C [8]: 98 % of control
T/C [9]: 98 % of control
T/C [10]: 100 % of control

CCc1cc2c(cc1C(=O)CBr)C(C)(C)CCC2(C)C
T/C (dose: 6.25 mg/kg/injection, schedule: Q01DX009 (ip), vehicle: saline with Tween-80): 109 % of control
T/C [11]: 113 % of control
T/C [12]: 118 % of control
T/C [13]: 113 % of control

O=S1(=O)CCN(C2CC2)CC1
T/C (dose: 12.5 mg/kg/injection, schedule: Q01DX009 (ip), vehicle: Klucel (hydroxypropylcellulose) (HPC)): 98 % of control
T/C (dose: 25.0 mg/kg/injection, schedule: Q01DX009 (ip), vehicle: Klucel (hydroxypropylcellulose) (HPC)): 100 % of control
T/C (dose: 50.0 mg/kg/injection, schedule: Q01DX009 (ip), vehicle: Klucel (hydroxypropylcellulose) (HPC)): 111 % of control

N#Cc1ccc(NN=NCCOCCCl)cc1
T/C (dose: 6.25 mg/kg/injection, schedule: Q01DX009 (ip), vehicle: distilled water + Tween-80): 97 % of control
T/C (dose: 12.5 mg/kg/injection, schedule: Q01DX009 (ip), vehicle: distilled water + Tween-80): 107 % of control
T/C (dose: 25.0 mg/kg/injection, schedule: Q01DX009 (ip), vehicle: distilled water + Tween-80): 104 % of control
T/C (dose: 50.0 mg/kg/injection, schedule: Q01DX009 (ip), vehicle: distilled water + Tween-80): 103 % of control
T/C (dose: 100.0 mg/kg/injection, schedule: Q01DX009 (ip), vehicle: distilled water + Tween-80): 104 % of control

CNC(=O)c1ccc[n+](C2OC(COC(C)=O)C(OC(C)=O)C2OC(C)=O)c1 (stereo not drawn)
T/C [1]: 100 % of control
T/C [2]: 97 % of control
T/C [4]: 91 % of control

O=C1Nc2ccccc2/C1=c1/sc2nc3ccccc3n2c1=O
T/C (dose: 200.0 mg/kg/injection, schedule: Q01DX001 (ip), vehicle: Klucel (hydroxypropylcellulose) (HPC)): 89 % of control
T/C (dose: 400.0 mg/kg/injection, schedule: Q01DX001 (ip), vehicle: Klucel (hydroxypropylcellulose) (HPC)): 89 % of control

COC(=O)C(CO)NC(=O)C(NC(=O)OCc1ccccc1)C(C)O (stereo not drawn) (Cbz-Thr-Ser-OMe; configuration not given here)
T/C (dose: 50.0 mg/kg/injection, schedule: Q01DX005 (ip), vehicle: Klucel (hydroxypropylcellulose) (HPC)): 118 % of control
T/C (dose: 100.0 mg/kg/injection, schedule: Q01DX005 (ip), vehicle: Klucel (hydroxypropylcellulose) (HPC)): 101 % of control
T/C (dose: 200.0 mg/kg/injection, schedule: Q01DX005 (ip), vehicle: Klucel (hydroxypropylcellulose) (HPC)): 108 % of control

CCC1(C(=O)c2ccccc2)C(C(=O)OC)=NC(=S)N=C1C(=O)OC
T/C [5]: 99 % of control
T/C [6]: 90 % of control
T/C [7]: 100 % of control

BrCCC[P+](c1ccccc1)(c1ccccc1)c1ccccc1
T/C (dose: 8.25 mg/kg/injection, schedule: Q01DX009 (ip), vehicle: saline with Tween-80): 116 % of control
T/C [11]: 116 % of control

CC(C)SCNc1ncnc2c1ncn2C1OC(CO)C(O)C1O (stereo not drawn)
T/C [3]: 98 % of control

COc1ccc2[nH]cc(C3CCCN4CCCCC34)c2c1 (stereo not drawn)
T/C [1]: 101 % of control
T/C [2]: 99 % of control

CCOC(=O)C(=CNC1CC(OC2C[C@](O)(C(C)=O)Cc3c(O)c4c(c(O)c32)C(=O)c2c(OC)cccc2C4=O)OC(C)C1O)C(=O)OCC (stereo partly drawn)
T/C (dose: 6.25 mg/kg/injection, schedule: Q04DX003 (ip), vehicle: saline with Tween-80): 95 % of control
T/C [12]: 100 % of control
T/C [13]: 104 % of control
T/C (dose: 50.0 mg/kg/injection, schedule: Q04DX003 (ip), vehicle: saline with Tween-80): 108 % of control

COc1cccc2c(NCCCN(C)CCCNc3c4ccccc4nc4c(OC)cccc34)c3ccccc3nc12
T/C (dose: 1.25 mg/kg/injection, schedule: Q01DX009 (ip), vehicle: water): 120 % of control
T/C (dose: 2.5 mg/kg/injection, schedule: Q01DX009 (ip), vehicle: water): 124 % of control
T/C (dose: 10.0 mg/kg/injection, schedule: Q01DX009 (ip), vehicle: water): 163 % of control

N#CC1Sc2ccccc2N1C(=O)c1ccccc1 (stereo not drawn)
T/C [1]: 103 % of control
T/C [2]: 100 % of control
T/C [4]: 98 % of control

CCOC(=O)CON1C(=O)CCC1=O
T/C (dose: 25.0 mg/kg/injection, schedule: Q01DX005 (ip), vehicle: saline): 102 % of control
T/C (dose: 50.0 mg/kg/injection, schedule: Q01DX005 (ip), vehicle: saline): 102 % of control
T/C (dose: 100.0 mg/kg/injection, schedule: Q01DX005 (ip), vehicle: saline): 100 % of control
T/C (dose: 200.0 mg/kg/injection, schedule: Q01DX005 (ip), vehicle: saline): 105 % of control

O=C1C(Cl)=C(Nc2ccc(C#Cc3ccccc3)cc2)C(=O)C(Cl)=C1Nc1ccc(C#Cc2ccccc2)cc1
T/C (dose: 50.0 mg/kg/injection, schedule: Q01DX009 (ip), vehicle: saline with Tween-80): 91 % of control
T/C (dose: 100.0 mg/kg/injection, schedule: Q01DX009 (ip), vehicle: saline with Tween-80): 91 % of control
T/C (dose: 200.0 mg/kg/injection, schedule: Q01DX009 (ip), vehicle: saline with Tween-80): 87 % of control

CCOC(=O)C1N=C(OCC)C(C)N=C1OCC (stereo not drawn)
T/C [8]: 101 % of control
T/C [9]: 102 % of control
T/C [10]: 100 % of control

CC(O)c1ccc(C(C)O)cc1 (stereo not drawn)
T/C (dose: 50.0 mg/kg/injection, schedule: Q01DX009 (ip), vehicle: saline): 91 % of control
T/C (dose: 100.0 mg/kg/injection, schedule: Q01DX009 (ip), vehicle: saline): 86 % of control
T/C (dose: 200.0 mg/kg/injection, schedule: Q01DX009 (ip), vehicle: saline): 96 % of control
